Reference: paper PMC11314343, “Improving the Solubility, Stability, and Bioavailability of Albendazole through Synthetic Salts” (Molecules, 2024)
In brackets after ≈: the same amount, converted by molar mass.

Columns and labels:
[1] = Solid-state stability, influencing factor testing (strong light, high humidity, elevated temperature); format: physicochemical; details: for stability under influencing factor conditions: 4500 ± 500 lux; for stability under influencing factor conditions / crystal transformation (PXRD): 92.5 ± 5% RH, 50 ± 2 °C; for crystal transformation (PXRD): strong light 4500 ± 500 lux, 0, 5, 10 days; for change of IDR on the 5th and 10th days compared to day 0: strong light, high humidity and high temperature
Experimental: Influencing factor testing included a strong light irradiation test, a high-humidity test, and an elevated temperature test. The strong light irradiation test involved placement of the sample opening under a light with an intensity of 4500 ± 500 lux. The high-humidity test involved placement of the sample in a constant-humidity container at 25 °C and 92.5% RH (saturated potassium nitrate solution). The high-temperature test involved placing the sample in a DHG-9070A constant-temperature oven (Shanghai Yiheng Technology Instrument Co., Ltd., Shanghai, China), set at 50 °C. Samples were taken on the 0th, 5th, and 10th days, and the crystal structure and dissolution of the samples were assessed for significant differences based on PXRD and IDR, as outlined above.

[2] = Dynamic vapor sorption (DVS), moisture adsorption isotherms; format: physicochemical; details: for water adsorption: 25 °C, at 90% RH
Experimental: The moisture sorption characteristics of all specimens were assessed at a temperature of 25 °C using an automated dynamic vapor sorption analyzer (Surface Measurement Systems, Wembley, UK). Prior to the sorption examination, the samples were equilibrated at a humidity level of 0% relative humidity (RH) to remove any adsorbed moisture. The specimens underwent a gradual variation in relative humidity, transitioning from 0 to 90% RH at intervals of 10% RH. Humidity was adjusted by increasing it by +10% RH after 6 h or upon achieving the equilibrium condition. The equilibrium condition was met when there was a <0.002% change in mass per minute within a span of 10 min. Upon completion of the sorption sequence, all samples were subjected to drying at 0% RH, which was stopped when the Δm/Δt was less than 0.002%/min within 10 min.

[3] = Accelerated stability testing; format: physicochemical; details: for stability under accelerated test conditions: 40 °C/75 ± 5% RH; for PXRD spectra under accelerated stability conditions: 40 ± 2 °C/75 ± 5% RH, 0, 3, 6 months
Experimental: Accelerated testing was utilized to contrast the stability of ABZ and its salts in the solid state. The solid variations were placed in an airtight container at 40 ± 2 °C with a humidity level of 75 ± 5% RH, and specimens were harvested at the intervals of 0, 3, and 6 months. PXRD analysis was used to ascertain whether there were any substantial alterations in dissolution properties and the crystal structure of the sample.

[4] = Pharmacokinetic comparison in Wistar rats after oral administration
Experimental: In vivo pharmacokinetic examination of albendazole and albendazole salts was performed in a half-male and half-female group of Wistar rats (n = 6), with an average body weight of 200 ± 20 g. The rats were fasted for one night before administration of albendazole at a dose of 25 mg/kg by gavage. Blood sampling was conducted by placing a jugular vein catheter surgically the day before administration. […] The tubes were centrifuged at 13,000× g for 10 min, and the upper plasma was collected and stored in an ultra-low-temperature freezer at −80 °C. Samples were processed by obtaining 100 μL of plasma; then, 400 μL of methanol was added, the samples were vortexed for 1 min, and they were centrifuged at 13,000× g for 5 min. Finally, 300 μL of the supernatant was obtained. A mixture of 6 μL of 10 μG/mL toluidazole internal standard solution was added to the supernatant. After 1 min of vortexing, the samples were centrifuged at 13,000× g for 5 min. The supernatant was then filtered through a microporous filter membrane before employing UPLC-HR-ESI-MS to assess the drug content.
The plasma concentrations of ABZ were assessed using a Dionex Ultimate 3000 RSLC system (Thermo Fisher, Waltham, MA, USA) equipped with an ACQUITY UPLC BEH C18 Column (130 Å, 150 mm × 2.1 mm × 2.6 μm) at a column temperature of 30 ± 1 °C. […] The MS analysis was conducted using a Q-Orbitrap MS coupled with heated electrospray ionization (HESI, Washington, DC, USA). The MS analysis was performed in full MS-ddMS^2 mode, with damping gas in the C-trap and nitrogen used to stabilize the spray. The auxiliary gas heater and capillary temperatures were established and maintained at 350 °C and 320 °C, respectively. In the negative mode, a spray voltage of 3.0 kV and an S-lens RF level of 60 V were employed. The full MS-ddMS^2 scan range was from 150.0000 to 1000.0000 m/z, and the precise molecular weight […] was employed for qualitative analysis. The corresponding peak area was utilized for quantitative analysis, and the MS^2 fragments were employed in further qualitative analysis.
The pharmacokinetic parameters were examined through non-compartment model analysis using DAS 2.0.

[5] = Intrinsic dissolution rate (IDR); format: physicochemical; details: 37 °C
Experimental: The powdered sample (140 mg) was measured and compacted to a tablet hardness of 5 Kg by a tester, employing a small manual tablet press. […] Then, 0.3 mL of the solution was withdrawn, at 1 min intervals, and subsequently subjected to centrifugation (15,000 rpm, 3 min). Afterward, it was subjected to double dilution with methanol and analyzed for the presence of the drug using HPLC.

[6] = set-up: method as in PMID 18938096; details: cited from earlier work
[7] = set-up: method as in PMID 12527162; details: cited from earlier work
[8] = water at 25 °C; cited from earlier work
[9] = Wistar rats, oral 25 mg/kg, plasma ABZ
[10] = both, Wistar, rat, plasma, po, 25 mg/kg

Row | SMILES | stability under influencing factor conditions [1] | crystal transformation (PXRD) [1] | change of IDR on the 5th and 10th days compared to day 0 [1] | water adsorption [2] [%] | stability under accelerated test conditions [3] | PXRD spectra under accelerated stability conditions [3] | Cmax increase compared to ABZ ([4]; Wistar rats, oral 25 mg/kg) | MRT(0–24) ([4]; Wistar rats, oral 25 mg/kg) [h] | MRT(0–∞) ([4]; Wistar rats, oral 25 mg/kg) [h] | T1/2 ([4]; Wistar rats, oral 25 mg/kg) [h] | Tmax ([4]; Wistar rats, oral 25 mg/kg) [h] | AUC(0–24) [4, 9] [ng/mL/h] | AUC(0–∞) [4, 9] [ng/mL/h] | Cmax [4, 9] [ng/mL] | IDR ([5]; pH 2 buffer) [mg·cm^−2·min^−1] | IDR ([5]; pH 7.4 buffer) [mg·cm^−2·min^−1] | further results
1 | CCCSc1ccc2[nH]c(NC(=O)OC)nc2c1.O=C(O)C(O)C(O)C(=O)O [ABZ-DTA, albendazole D-tartrate] | remained stable for 10 days | not observed | no statistically significant difference | 70.15 | remained stable for 6 months | unchanged | ~4.6 times | 6.67 ± 0.61 | 8.92 ± 1.51 | 6.11 ± 1.21 | 1.25 ± 0.61 | 1835.37 ± 379.84 | 1955.94 ± 431.79 | 322.68 ± 68.67 | 0.0730 | 0.0008 | weight increase by water adsorption ([2]; sharp increase when the RH reached 60%): 47.59%
2 | CCCSc1ccc2[nH]c(NC(=O)OC)nc2c1.Cl [ABZ-HCl, albendazole hydrochloride] | remained stable for 10 days | not observed | no statistically significant difference | 37.65 | remained stable for 6 months | unchanged | ~6.9 times | 7.66 ± 2.08 | 24.65 ± 33.76 | 16.85 ± 23.17 | 1.21 ± 0.68 | 3089.28 ± 1228.16 | 5371.96 ± 4618.85 | 478.96 ± 138.62 | 0.1128 | 0.0041 | –
3 | CCCSc1ccc2[nH]c(NC(=O)OC)nc2c1.O=C(O)C=CC(=O)O [ABZ-FMA, albendazole fumarate] | remained stable for 10 days | not observed | no statistically significant difference | 6.72 | remained stable for 6 months | unchanged | approximately 3.8 times | 6.41 ± 0.66 | 17.53 ± 15.90 | 14.07 ± 14.37 | 1.67 ± 1.17 | 1205.56 ± 855.61 | 1975.42 ± 1856.96 | 260.58 ± 179.73 | 0.0328 | 0.0009 | –
4 | CCCSc1ccc2nc(NC(=O)OC)[nH]c2c1 [ABZ, Albendazole] | – | – | – | 3.86 | – | – | – | – | – | – | – | – | – | – | 0.0096 | 0.0004 | change of IDR after being placed at 50 °C ([1]; 50 °C, 5 and 10 days vs day 0): increased; oral bioavailability in humans [6]: less than 5%; log P [7]: 2.54; half-life ([4]; both, Wistar, rat, in vivo, po, 25 mg/kg): 5.98 ± 3.27 h; AUC(0-inf) [4, 10]: 374 ± 136 ng·h/mL; AUC(0-t) [4, 10]: 352 ± 147 ng·h/mL; Cmax [4, 10]: 69.6 ± 51.7 ng/mL; MRT inf [4, 10]: 9.19 ± 5.1 h; MRT last [4, 10]: 7.07 ± 2.27 h; Tmax [4, 10]: 2.54 ± 1.57 h; solubility in water [8]: 22.8 µg/mL (≈ 85.9 µM)
